“And” between values parts separate entries of the source, which are not always exact repeats. Equal values may be shown once. Read-outs that look alike come from different tables or passages of the source.
Key:
IKK-alpha = test: KINOMEscan; conditions: 50000 nM
Experimental: KINOMEscan™ selectivity screen
(§2) The assay was perfor med at DiscoveRx Corporation according the methods published previously5. Briefly, Kinase-tagged T7 phage strains were grown in parallel in an E. coli host derived from the BL21 strain. E. coli were grown to log-phase and infected with T7 phage from a frozen stock and incubated with shaking at 32°C until lysis (90-150 minutes). The kinases were produced in HEK-293 cells and subsequently tagged with DNA for qPCR detection. Streptavidin-coated magnetic beads were treated with biotinylated small molecule ligands to generate affinity resins for kinase
(§3) inhibitor or DMSO control was performed in polypropylene 384-well plates for 1 hr at room temperature. After wash with PBS buffer containing 0.05% Tween 20, the beads were incubated in elution buffer (PBS containing 0.05 % Tween 20 and 0.5 μM non-biotinylated affinity ligand) for 30 minutes at room temperature. The kinase concentration in the eluates was measured by qPCR.

CDKL1 = test: KINOMEscan; conditions: 50000 nM
Experimental: KINOMEscan™ selectivity screen
(§4) Briefly, Kinase-tagged T7 phage strains were grown in parallel in an E. coli host derived from the BL21 strain. E. coli were grown to log-phase and infected with T7 phage from a frozen stock and incubated with shaking at 32°C until lysis (90-150 minutes). The kinases were produced in HEK-293 cells and subsequently tagged with DNA for qPCR detection. Streptavidin-coated magnetic beads were treated with biotinylated small molecule ligands to generate affinity resins for kinase
as §3

MST4 = test: KINOMEscan; conditions: 50000 nM
Experimental: KINOMEscan™ selectivity screen
(§5) The assay was perfor med at DiscoveRx Corporation according the methods published previously5. […] The kinases were produced in HEK-293 cells and subsequently tagged with DNA for qPCR detection. Streptavidin-coated magnetic beads were treated with biotinylated small molecule ligands to generate affinity resins for kinase
as §3

Akt [1] = test system: T1, Akt; test: In vitro phosphorylation of Akt T308 by PDK1; assay type: biochemical; conditions: inactive Akt, PE/PC/PS/PIP3 vesicles
T1 construct: purchased Millipore 14-279

[2] = test system: ABL1(Y253F)-phosphorylated; test: KINOMEscan; conditions: 50000 nM
Experimental: KINOMEscan™ selectivity screen
as §2, §3

TNNI3K = test: KINOMEscan; conditions: 50000 nM
Experimental: KINOMEscan™ selectivity screen
as §2, §3

ASK1 = test: KINOMEscan; conditions: 50000 nM
Experimental: KINOMEscan™ selectivity screen
as §2, §3

TNIK = test: KINOMEscan; conditions: 50000 nM
Experimental: KINOMEscan™ selectivity screen
as §4, §3

Akt [3] = target: T2, Akt (Mus musculus, UniProt P31750); test: Akt activity assay (immunoprecipitated Akt, K-Lisa); assay type: cell-based
T2 construct: subjected to immunoprecipitation using protein G-plus and anti-AKT PH domain (Millipore); endogenous in cells; host or cells: Neuro 2A (mouse neuroblastoma), IGF-stimulated
Experimental: After overnight starvation by incubating with serum-free DMEM, Neuro 2A cells were treated with compound G7 at various concentrations for 30 min at room temperature followed by stimulation with IGF (final concentration of 100 ng/mL) for 30 min. Cells were lysed with lysis buffer containing 1% Triton X-100 and protease/phosphatase inhibitors (Cell Signaling Technology) and subjected to immunoprecipitation using protein G-plus and anti-AKT PH domain (Millipore). The activity of the immunopurified Akt was evaluated using a K-Lisa Akt activity kit (Millipore) in accordance with manufacturer’s instructions. The activity was normalized to Akt level in the immunoprecipitates determined by quantitative western blot analysis.

TSSK3 = test: KINOMEscan; conditions: 50000 nM
Experimental: KINOMEscan™ selectivity screen
as §2, §3

STK39 = test: KINOMEscan; conditions: 50000 nM
Experimental: KINOMEscan™ selectivity screen
as §2, §3

S6K1 = test: KINOMEscan; conditions: 50000 nM
Experimental: KINOMEscan™ selectivity screen
as §2, §3

PHKG1 = test: KINOMEscan; conditions: 50000 nM
Experimental: KINOMEscan™ selectivity screen
as §4, §3

full-length Akt = target: T3, full-length Akt (Homo sapiens, UniProt P31749); test: Microscale thermophoresis; assay type: binding
T3 construct: purchased Millipore
Experimental: (§1) Using 0.1 M Tris-HCl buffer (pH 7.2) containing 0.05% Tween-20, a 1:1 serial dilution was prepared for G7 to yield 16 working solutions, with the highest concentration being 200 µM. Each of these G7 solutions was mixed with 1 µM of purified Akt sample prepared in the same 0.05% Tween-20 Tris-HCl buffer. […] After 15-min incubation the samples were centrifuged at 14,000 g at 4 °C before loading into premium coated capillaries (NanoTemper Tech.) for MST measurements. The MST experiments was conducted on a Monolith NT.LabelFree instrument (NanoTemper Tech.), at 20% LED power and 40% MST power. Data analyses were performed using the NanoTemper analysis software.

Akt PH domain = target: T4, Akt PH domain (Homo sapiens, UniProt P31749); test: Microscale thermophoresis; assay type: binding; conditions: recombinant Akt PH domain
T4 construct: The Akt samples tested include recombinant Akt PH domain; purchased Millipore
Experimental: as §1

PIK3C2B = test: KINOMEscan; conditions: 50000 nM
Experimental: KINOMEscan™ selectivity screen
as §4, §3

NEK10 = test: KINOMEscan; conditions: 50000 nM
Experimental: KINOMEscan™ selectivity screen
as §2, §3

TAOK3 = test: KINOMEscan; conditions: 50000 nM
Experimental: KINOMEscan™ selectivity screen
as §2, §3

PIK3CA(I800L) = test: KINOMEscan; conditions: 50000 nM
Experimental: KINOMEscan™ selectivity screen
as §2, §3

CASK = test: KINOMEscan; conditions: 50000 nM
Experimental: KINOMEscan™ selectivity screen
as §4, §3

SRPK1 = test: KINOMEscan; conditions: 50000 nM
Experimental: KINOMEscan™ selectivity screen
as §2, §3

MKNK1 = test: KINOMEscan; conditions: 50000 nM
Experimental: KINOMEscan™ selectivity screen
as §4, §3

MST3 = test: KINOMEscan; conditions: 50000 nM
Experimental: KINOMEscan™ selectivity screen
as §2, §3

BIKE = test: KINOMEscan; conditions: 50000 nM
Experimental: KINOMEscan™ selectivity screen
as §5, §3

MST1R = test: KINOMEscan; conditions: 50000 nM
Experimental: KINOMEscan™ selectivity screen
as §2, §3

RET = test: KINOMEscan; conditions: 50000 nM
Experimental: KINOMEscan™ selectivity screen
as §2, §3

CLK2 = test: KINOMEscan; conditions: 50000 nM
Experimental: KINOMEscan™ selectivity screen
as §2, §3

PRKD3 = test: KINOMEscan; conditions: 50000 nM
Experimental: KINOMEscan™ selectivity screen
as §2, §3

CAMK2G = test: KINOMEscan; conditions: 50000 nM
Experimental: KINOMEscan™ selectivity screen
as §2, §3

T2 sequence (P31750 whole entry, the tested form may be a part): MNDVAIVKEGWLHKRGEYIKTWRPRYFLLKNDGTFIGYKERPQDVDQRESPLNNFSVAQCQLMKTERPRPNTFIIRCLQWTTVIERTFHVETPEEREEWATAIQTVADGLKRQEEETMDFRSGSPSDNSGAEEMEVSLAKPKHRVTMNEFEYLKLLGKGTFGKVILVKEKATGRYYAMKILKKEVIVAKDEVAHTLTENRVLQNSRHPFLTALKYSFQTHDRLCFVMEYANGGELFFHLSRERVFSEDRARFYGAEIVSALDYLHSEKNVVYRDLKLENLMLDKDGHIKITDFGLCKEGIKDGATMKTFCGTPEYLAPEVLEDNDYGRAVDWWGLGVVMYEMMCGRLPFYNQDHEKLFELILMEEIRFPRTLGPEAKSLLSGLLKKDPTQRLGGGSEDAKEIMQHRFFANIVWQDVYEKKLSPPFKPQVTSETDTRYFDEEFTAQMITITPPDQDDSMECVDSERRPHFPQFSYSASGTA
T3 sequence (P31749 whole entry): as the sequence (P31750 whole entry, the tested form may be a part) above, with N2S, S50A, A100T, R112K, T117E, T389K, N410G, D415H counted along it
T4 sequence (P31749 5-108 limits assumed): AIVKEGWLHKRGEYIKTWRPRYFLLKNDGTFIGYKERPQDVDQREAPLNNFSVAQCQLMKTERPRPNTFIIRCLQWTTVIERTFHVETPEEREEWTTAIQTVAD

Oc1cc(-c2ccccc2)c2ccccc2n1 [G7, 4-phenylquinolin-2(1H)-one]
Percent Control (IKK-alpha): 92%
Percent Control (CDKL1): 100%
Percent Control (MST4): 53%
in vitro phosphorylation of T308 by PDK1 (Akt [1]): impaired
Percent Control [2]: 56%
Percent Control (TNNI3K): 95%
Percent Control (ASK1): 94%
Percent Control (TNIK): 60%
decrease of Akt activity (Akt [3]; G7 at 50 µM): ~ 80%
IC50 (Akt [3]; IGF-stimulated Neuro 2A cells, Akt immunoprecipitated, read-out: IC50 on Akt enzymatic activity): 6 µM and 6.2 µM
Percent Control (TSSK3): 95%
Percent Control (STK39): 85%
Percent Control (S6K1): 96%
Percent Control (PHKG1): 79%
Kd (full-length Akt; active Akt, read-out: Kd): 6.3 ± 2.9 µM
Kd (full-length Akt; full-length Akt regardless of the activation status, read-out: Kd values): 4 to 6 µM
Kd (full-length Akt; inactive Akt, read-out: Kd): 3.7 ± 1 µM
Kd (Akt PH domain): 8 µM
Percent Control (PIK3C2B): 100%
Percent Control (NEK10): 66%
Percent Control (TAOK3): 100%
Percent Control (PIK3CA(I800L)): 95%
Percent Control (CASK): 89%
Percent Control (SRPK1): 47%
Percent Control (MKNK1): 69%
Percent Control (MST3): 59%
Percent Control (BIKE): 52%
Percent Control (MST1R): 100%
Percent Control (RET): 51%
Percent Control (CLK2): 64%
Percent Control (PRKD3): 89%
Percent Control (CAMK2G): 81%

From paper PMC5601486, “Identification of 4-phenylquinolin-2(1H)-one as a specific allosteric inhibitor of Akt” (Scientific Reports, 2017)
